In experiment [1] the test system is HepG2. The experiment can be described thus: Antiproliferative activity against human HepG2 cells by MTT assay. The format is functional, cell-based. On the technique in general: Formazan colour is commonly taken as a measure of viable cells.
The test system of a further experiment is MGC-803. The experiment can be described thus: Antiproliferative activity against human MGC803 cells by MTT assay. Type of experiment: functional, cell-based.
The next experiment concerns SK-N-SH. As to the kind of experiment: Antiproliferative activity against human SK-N-SH cells by MTT assay. The format is functional, cell-based.
The next experiment relates to DU-145. The experiment can be described thus: Antiproliferative activity against human DU145 cells by SRB assay. The format is functional, cell-based. On the technique in general: The SRB assay estimates cell density from bound dye.
The test system of a further experiment is HeLa. As to the kind of experiment: Antiproliferative activity against human HeLa cells by SRB assay. Type of experiment: functional, cell-based.
In experiment [2] the test system is MDA-MB-231. The experiment can be described thus: Antiproliferative activity against human MDA-MB-231 cells by SRB assay. Type of experiment: functional.
In experiment [3] the test system is HepG2. The experiment can be described thus: Antiproliferative activity against human HepG2 cells by SRB assay. Type of experiment: functional, cell-based.
For another experiment, the system named is SK-BR-3. As to the kind of experiment: Antiproliferative activity against human SKBR3 cells assessed as reduction in cell viability after 72 hrs by MTT assay. Type of experiment: functional, cell-based. Conditions: SK-BR-3, 72 h.
The test system of another experiment is SUM-159-PT. As to the kind of experiment: Antiproliferative activity against human SUM159 cells assessed as reduction in cell viability after 72 hrs by MTT assay. Type of experiment: functional, cell-based.
The next experiment has as its system KG-1a. The experiment can be described thus: Antiproliferative activity against human KG1a cells assessed as reduction in cell viability after 72 hrs by MTT assay. Type of experiment: functional, cell-based.
Experiment [4] relates to MCF7. The experiment can be described thus: Antiproliferative activity against human MCF7 cells assessed as reduction in cell viability after 72 hrs by MTT assay. The conditions noted are these: MCF7, 72 h. The format is functional, cell-based.
The subject of experiment [5] is T47D. The experiment can be described thus: Antiproliferative activity against human T47D cells assessed as reduction in cell viability after 72 hrs by MTT assay. Type of experiment: functional, cell-based.
Experiment [6] deals with MCF7. As to the kind of experiment: Antiproliferative activity against human MCF7 cells assessed as reduction in cell viability after 48 hrs by MTT assay. Type of experiment: functional, cell-based. Conditions: MCF7, 48 h.
The test system of experiment [7] is A549. The experiment can be described thus: Antiproliferative activity against human A549 cells assessed as reduction in cell viability after 48 hrs by MTT assay. Type of experiment: functional, cell-based. The conditions noted are these: A549, 48 h.
Another experiment deals with SW480. The experiment can be described thus: Antiproliferative activity against human SW480 cells assessed as reduction in cell viability after 48 hrs by MTT assay. Type of experiment: functional, cell-based. The conditions noted are these: SW480, 48 h.
Experiment [8] is described as follows: Antiproliferative activity against human SMCC7721 cells assessed as reduction in cell viability after 48 hrs by MTT assay. The format is functional, cell-based.
Experiment [9] has as its system MCF7. As to the kind of experiment: cells. The format is functional, cell-based. Conditions: Homo sapiens.
Description: Antiproliferative activity against human MCF7 cells by MTT assay
Experiment [10] concerns MDA-MB-231. The experiment can be described thus: Antiproliferative activity against human MDA-MB-231 cells by MTT assay. Type of experiment: functional, cell-based.
A further experiment has as its system MCF-10A. As to the kind of experiment: Cytotoxicity against human MCF10A cells by MTT assay. The format is cell-based.
Another experiment has as its system HCT-116. The experiment can be described thus: Antiproliferative activity against human HCT116 cells assessed as reduction in cell viability after 48 hrs by MTT assay. The format is functional, cell-based. Conditions: HCT-116, 48 h.
Experiment [11] has as its system T47D. The experiment can be described thus: Antiproliferative activity against human T47D cells assessed as reduction in cell viability after 48 hrs by MTT assay. Type of experiment: functional, cell-based.
Another experiment deals with Caco-2. As to the kind of experiment: Antiproliferative activity against human Caco2 cells assessed as reduction in cell viability after 48 hrs by MTT assay. The conditions noted are these: Caco-2, 48 h. Type of experiment: functional, cell-based.
Experiment [12] deals with A549. The experiment can be described thus: Antiproliferative activity against human A549 cells by SRB assay. Type of experiment: functional, cell-based.
The next experiment concerns Lu1. The experiment can be described thus: Antiproliferative activity against human Lu1 cells by MTT assay. The format is functional, cell-based.
Another experiment deals with HL-60. The experiment can be described thus: Antiproliferative activity against human HL60 cells by MTT assay. The format is functional, cell-based.
Another experiment relates to P388. As to the kind of experiment: Antiproliferative activity against mouse P388 cells by MTT assay. The format is functional, cell-based.
The subject of the next experiment is K562. The experiment can be described thus: Antiproliferative activity against human K562 cells assessed as reduction in cell viability after 24 hrs by MTT assay. The format is functional, cell-based. The conditions noted are these: K562, 24 h.
The test system of the next experiment is PC-3. As to the kind of experiment: Antiproliferative activity against human PC3 cells assessed as reduction in cell viability after 24 hrs by MTT assay. Conditions: PC-3, 24 h. The format is functional, cell-based.
In a further experiment the test system is A-431. As to the kind of experiment: Antiproliferative activity against human A431 cells assessed as reduction in cell viability after 24 hrs by MTT assay. The format is functional, cell-based. Conditions: A-431, 24 h.
For experiment [13], the system named is MDA-MB-231. As to the kind of experiment: Antiproliferative activity against human MDA-MB-231 cells assessed as reduction in cell viability after 24 hrs by MTT assay. Type of experiment: functional, cell-based. The conditions noted are these: MDA-MB-231, 24 h.
A further experiment concerns COLO 205. The experiment can be described thus: Antiproliferative activity against human COLO205 cells assessed as reduction in cell viability after 24 hrs by MTT assay. The conditions noted are these: COLO 205, 24 h. The format is functional, cell-based.
Experiment [14] relates to A549. As to the kind of experiment: Antiproliferative activity against human A549 cells assessed as reduction in cell viability after 24 hrs by MTT assay. The format is functional, cell-based. Conditions: A549, 24 h.
For a further experiment, the system named is KB. The experiment can be described thus: Antiproliferative activity against human KB cells by MTT assay. Type of experiment: functional, cell-based.
The next experiment concerns HT-29. The experiment can be described thus: Antiproliferative activity against human HT-29 cells assessed as reduction in cell viability after 72 hrs by MTT assay. Type of experiment: functional, cell-based. The conditions noted are these: HT-29, 72 h.

In brackets after ≈: the same amount, converted by molar mass. Where only a bound is given, the exact number is not on record here.

What is called IC50 is the concentration that inhibits the measured activity by half. `COc1cc(/C=C/C(=O)c2ccc(OCCCn3cc(CSc4nncs4)nn3)cc2)cc(OC)c1OC`: the concentration for half-maximal inhibition (IC50) with HepG2 [1], in the experiment on MGC-803 and in the experiment on SK-N-SH was 1.52 to 10.4 µM throughout.

Broadly, the GI50 is the concentration giving 50% growth inhibition. As for `Cc1ccc(-c2nn(Cc3cn(Cc4ccccc4)nn3)c(=O)o2)cc1`, the GI50 in the experiment on DU-145, with HeLa, in the experiment with MDA-MB-231 [2] and with HepG2 [3] was 0.82 to 2.39 µM in each case.

As for `Fc1cccc(COc2ccc(Nc3ncnc4ccc(-n5cc(CNC6CCN(Cc7cccnc7)CC6)nn5)cc34)cc2Cl)c1`, the half-inhibitory concentration (IC50) in the experiment with SK-BR-3, with SUM-159-PT and with KG-1a was 2.06 to 7.47 µM each time.

Turning to `COc1ccc(Cn2cc(CNC(=O)c3cc(-c4ccccc4)on3)nn2)cc1`, the concentration for 50% growth inhibition (GI50) in the experiment on MCF7 [4] and in the experiment on T47D [5] was 27.7 to 85.7 µg/mL (≈ 71.1 to 220 µM) in each case.

In the case of `COc1cc([C@@H]2c3cc4c(cc3[C@H](n3cc(CO[C@@H]5O[C@H](COC(C)(C)C)[C@@H](OC(C)(C)C)[C@H](OC(C)(C)C)[C@H]5OC(C)(C)C)nn3)[C@H]3COC(=O)[C@H]23)OCO4)cc(OC)c1OC`, the concentration for half-maximal inhibition (IC50) (in the experiment on MCF7 [6]; in the experiment with A549 [7]; with SW480; in experiment [8]) was 0.49 to 6.7 µM throughout.

`Cc1c(-n2nnc(-c3nn(-c4nncc5ccccc45)cc3C=O)c2C)cccc1C(F)(F)F`: the values for the IC50 in the experiment with MCF7 [9], in the experiment on MDA-MB-231 [10] and in the experiment with MCF-10A were 6.8 to 27.6 µM, 6.8 to 27.6 µM and 21.9 to 25.3 µM, respectively.

In the case of `COc1cc(/C=C/C(=O)c2ccc(OCCCn3cc(CSC4=NCCS4)nn3)cc2)cc(OC)c1OC`, the IC50 with HepG2 [1], with MGC-803 and in the experiment on SK-N-SH was 1.52 to 10.4 µM in each case.

With `O=C(Cn1cc(CO)nn1)N1CCN(c2nc3ccccc3s2)CC1`, the half-maximal inhibitory concentration (IC50) in the experiment with MCF7 [6], in the experiment on HCT-116, in the experiment with T47D [11] and with Caco-2 was 33 to 154 µM each time.

`COc1ccc(/C=C/C(=O)c2cc(OC)c(OC)c(OC)c2)cc1OCc1cn(Cc2ccc(F)cc2)nn1`: the 50% growth inhibitory concentration (GI50) in the experiment on DU-145, in the experiment on HeLa, in the experiment with HepG2 [3] and in the experiment with A549 [12] was 1.3 to 8.2 µM in each case.

As to `Cc1c(C(F)(F)F)cc(Cl)c(Cl)c1-n1nnc(-c2nn(-c3nncc4ccccc34)cc2C=O)c1C`, the results for the half-inhibitory concentration (IC50) in the experiment with MCF7 [9], in the experiment on MDA-MB-231 [10] and with MCF-10A were 6.8 to 27.6 µM, 6.8 to 27.6 µM and 21.9 to 25.3 µM, respectively.

Regarding `CCOC(=O)c1cn(CC(=O)N2CCN(c3nc4ccccc4s3)CC2)nn1`, the IC50 in the experiment with MCF7 [6], in the experiment with HCT-116, with T47D [11] and in the experiment with Caco-2 was 33 to 154 µM each time.

For the molecule `C[C@H]1[C@@H](O)O[C@@H]2O[C@@]3(C)CC[C@H]4[C@H](C)CC[C@@H]1[C@@]24OO3` [ARTENIMOL], the IC50 was in the range of 39.9 to 84.3 µM with MCF7 [9]; 39.9 to 84.3 µM in the experiment on Lu1; 39.9 to 84.3 µM with HL-60; 39.9 to 84.3 µM in the experiment with P388; 42.4 to 52.6 µM in the experiment with K562; 42.4 to 52.6 µM in the experiment on PC-3. In addition, the IC50 in the experiment on A-431 is 42.4 to 52.6 µM; with MDA-MB-231 [13], 42.4 to 52.6 µM; in the experiment with COLO 205, 42.4 to 52.6 µM; in the experiment on A549 [14], 42.4 to 52.6 µM; with HepG2 [1] it was 63.7 µM; in the experiment with KB, 95.3 µM.

Turning to `Cc1c2ccncc2c(C)c2c1[nH]c1ccccc12` [ELLIPTECINE], the 50% inhibitory concentration (IC50) fell in the range of 1.7 to 3.5 µM in the experiment on MCF7 [9]; 1.7 to 3.5 µM with Lu1; 1.7 to 3.5 µM in the experiment on HL-60; 1.7 to 3.5 µM in the experiment with P388; 0.93 to 1.46 µM in the experiment on HepG2 [1]; 0.81 to 1.26 µM with KB.

As for `CNC(=O)c1cc(Oc2ccc(NC(=O)Nc3ccc(Cl)c(C(F)(F)F)c3)cc2)ccn1` [SORAFENIB], the IC50 in the experiment with MCF7 [4] is 43.3 µM; in the experiment with HT-29, 5.29 µM.

In the case of `CN(C)CCOc1ccc(/C(=C(/CCCl)c2ccccc2)c2ccccc2)cc1` [TOREMIFENE], the IC50 in the experiment on MCF7 [9] is 7 µM; in the experiment with MDA-MB-231 [10] it was 13 µM; in the experiment with MCF-10A, > 100 µM.

`Cc1cn([C@H]2C[C@H](N=[N+]=[N-])[C@@H](CO)O2)c(=O)[nH]c1=O` [ZIDOVUDINE]: the IC50 with HepG2 [1] and in the experiment on KB was > 400 µM in each case.

The values are drawn from ChEMBL document CHEMBL4342418, “1,2,3-Triazole-containing hybrids as potential anticancer agents: Current developments, action mechanisms and structure-activity relationships” (Eur J Med Chem, 2019).
